Experimental data from patent US5332732A, “Thiophene and pyridine antipsychotic agents” (McNeilab, Inc., priority 1992, dated 1994).
Structures can show the parent of a compound that is named as a salt.

Tested on: Conditioned Avoidance Responding (Rat)
Assay: Block of Conditioned Avoidance Responding (Rat) test (CAR)
Format: in vivo, Male Fischer 344 rats
Conditions: for % escape loss: group mean % failures to escape; for % Inhibition CAR: mean % change in CAR vs vehicle day, negative = blockade
Excerpt: The antipsychotic activity of the compounds of the invention may be determined by the Block of Conditioned Avoidance Responding (Rat) test (CAR), the references being Cook, L. and E. Weidley in Ann. […] P. Reynolds Trends Pharmacol. Sci. 1992, 13, 116). […] Block of Conditioned Avoidance Responding (Rat) Apparatus: Rat operant chambers, housed within sound attenuated booths, both from […] Instruments Ltd., were used in this test. The test chamber (8" H×903/8" W×9" D) is constructed of aluminum and plexiglass with floor grid bars of stainless-steel (1/8" O.D.) spaced 9/16" apart. A stainless-steel operation level 11/2" wide projects 3/4" into the chamber and is positioned 2-2/8" above the grid floor. The shock stimulus is delivered via the grid floor by a Coulbourn Instruments solid state module. The parameters of the test and the collection of data are controlled automatically. Training: Male, Fischer 344 rats obtained from Charles River (Kingston, N.Y.) weighing more than 200 g, are individually housed with chow and water provided ad libitum. The rats are trained for two weeks to approach criterion levels in the avoidance test (90% avoidance rate). One-hour training sessions are run at about the same time each day for four or five days a week. The training session consists of 120 tdals, with the conditioned stimuli presented every 30 sec. A trial begins with presentation of the conditioned stimuli (a light and a tone). If the rat responds by depressing the operant lever during the 15-second presentation of the conditioned stimuli, the trial is terminated .and the animal is credited with a CAR. Failure to respond during the conditioned stimuli causes the presentation of the unconditioned stimulus (UCS), a 0.7 mA shock which is accompanied by a light and tone for […]. If the rat depressed the lever within the ten-second period, the shock and trial are terminated and an escape response recorded. If the rat fails to depress the lever during the UCS (shock), the trial is terminated after ten seconds of shock and the absence of a response is scored as a failure to escape. […] presses have no effect. If a rat performs at the 90% CAR level for two weeks, it is then run twice a week on the test schedule (see below) until baseline performance stabilized. Before any drug is administered, two weeks of CAR at a rate of 90% or better is required. Determination of ED50 Values Trained rats are run in a one-hour session on two consecutive days at the same time and in the same test chamber each day. The sessions consist of 60 trials, one every minute. The conditioned stimuli are presented for 15 sec (maximum) and the unconditioned stimuli five sec (maximum). On Day 1, a vehicle solution is administered to the rats at a time preceding the trial run corresponding to the pretreatment time for the test compound. The route of administration and the volume of vehicle are also matched to that of the test compound. […] The percent change in CAR on the drug treatment day compared to vehicle pretreatment day is the key measure. The percent change (% change) in CAR is determined using the following formula: % change CAR=((Day 2% CAR/Day 1% CAR)×100)-100 A negative number indicates a blockade of CAR, whereas a positive number would indicate increased CAR. The test results are reported as the mean % change for the group of rats. A reading of -20% is generally taken to represent a minimum value for a compound to be designated as active at a given dose in the CAR test. Failure to escape was calculated for each animal as follows: % Failures=# of Failures to Escape/# of trials The % failures, viz., loss of escape, is also reported as a group mean. Failures to escape are monitored closely and a session is terminated if ten failures occurred. ED50 values and 95% confidence limits are calculated using linear regression analysis.

| SMILES | % escape loss (5 mpk, PI) | % Inhibition CAR (5 mpk, PI) | % escape loss (15 mpk) | % Inhibition CAR (15 mpk) |
| --- | --- | --- | --- | --- |
| CC(C)Oc1ccccc1N1CCN(Cc2ccc(C(=O)N3CCCCC3)s2)CC1.O=C(O)/C=C/C(=O)O [CP #1, 1-[[5-[[1-[2-(1-Methylethoxy)phenyl]-4-piperazinyl]methyl]-2-thienyl]carbonyl]piperidine Fumarate] | 18% | -56% | – | – |
| CC(C)Oc1ccccc1N1CCN(Cc2cc(C(=O)N3CCCCC3)cs2)CC1.Cl [CP #2, 1-[[5-[[1-[2-(1-Methylethoxy)phenyl]-4-piperazinyl]methyl]-3-thienyl]carbonyl]piperidine Monohydrochloride] | 34% | -72% | – | – |
| CC(C)Oc1ccccc1N1CCN(Cc2ccc(C(=O)N3CCCCCC3)s2)CC1 [CP #3, Hexahydro-1-[[5-[[1-[2-(1-methylethoxy)phenyl]-4-piperazinyl]methyl]2-thienyl]carbonyl]-1H-azepine Monohydrochloride Hemi Hydrate] | 3% | -8% | – | – |
| CC(C)Oc1ccccc1N1CCN(Cc2cc(C(=O)N3CCCCCC3)cs2)CC1 [CP #4, Hexahydro-1-[5-[[-1-[2-(1-Methylethoxy)phenyl-4-piperazinyl]methyl]-3-thienyl]carbonyl]-1-H-azepine Hydrochloride Hydrate] | 3% | -41% | – | – |
| CC(C)Oc1ccccc1N1CCN(Cc2ccc(CN3CCCCC3=O)s2)CC1 [CP #5, 1-[[5-[[1-[2-(1-Methylethoxy)phenyl-4-piperazinyl]methyl]-2-thienyl]methyl]-2-piperidinone Hydrochloride] | 3% | -58% | – | – |
| O=C1CCCCN1Cc1ccc(CN2CCN(c3cccc4ccoc34)CC2)s1 [CP #6, 1-[[5-[[1-(7-Benzofuranyl)-4-piperazinyl]methyl]-2-thienyl]methyl]-2-piperidinone1.5 Fumarate Hydrate] | 5% | -63% | – | – |
| CC(C)Oc1ccccc1N1CCN(Cc2cccc(CN3CCCCC3=O)n2)CC1 [CP #7, 1-[[6-[[1-[2-(Methylethoxy)phenyl]-4-piperazinyl]methyl]pyridinyl]methyl]-2-piperidinone Hydrochloride] | – | – | 0% | -85% |
